In patent US20200352906A1, “Heterobicyclic Carboxylic Acids for Treating Cancer or Inflammatory Diseases” (Shenzhen Ionova Life Science Co., Ltd., priority 2018, published 2020):

Assays:
[1] = test system: arthritis mice (AIA model); assay: In vivo anti-inflammatory activity, AIA arthritis model
Description: Male Lewis Rates of 8-10 weeks old were fed with fixed amount of foods and free water at 20±2° C., under light in the 12-hour light and 12-hour darkness cycle and with the humidity of 45-70%. All mice were provided adjusted living for three days before they were used in test. 56 of such mice were divided into 7 groups with 8 mice in each group. One group was a control group and received only 1% CMCNa solution; one group was a model group and also received only 1% CMCNa solution; one group was a positive group and received Celecoxib at 18 mg/kg, and the other four groups received solutions of tested compound at the 1 mg/kg, 3 mg/kg, 10 mg/kg and […] dosages respectively.
1% CMC-Na was prepared with 1.00277 g of CMC-Na in 100 mL distilled water, heated with a 60° C. water bath until CMC-Na fully dissolved.
18 mg/kg Celecoxib capsule: 18.09 mg Celecoxib was placed into a grinder into which 10 mL 1% CMC-Na solution was added slowly. The mixture was ground until Celecoxib fully dissolved.
10 mg/kg C-003 solution: 10.08 mg of a tested compound (4-(1-{[2-Methyl-4-(4-trifluoromethyl-benzyl)-4H-thieno[3,2-b]pyrrole-3-carbonyl]-amino}-cyclopropyl)-benzoic acid diethanolamino salt, which is referred to hereinafter as INV-1120 diethanolamino salt) was added into a grinder, into which 10 mL 1% CMC-Na solution was slowly added until INV-1120 diethanolamino salt fully dissolved.
30 mg/kg INV-1120 solution: 30.3 mg of INV-1120 diethanolamino salt was added into a grinder, into which 10 mL 1% CMC-Na solution was slowly added until INV-1120 diethanolamino salt fully dissolved.
1 mg/kg INV-1120 was prepared by mixing 1.0 mL of 10 mg/kg INV-1120 diethanolamino salt solution with 9 mL 1% CMC-Na.
3 mg/kg INV-1120 was prepared by mixing 1.0 mL of 30 mg/kg INV-1120 diethanolamino salt solution with 9 mL 1% CMC-Na.
After the mice were subject to Anesthesia, they were cleaned with medical alcohol at their right feet. The mice in the control group were administered with 50 uL PBS, and the mice of the other groups were treated at the right feet with 50 uL CDA solution. One day before the establishment of the model, the basic size (volume) of each mice was measured, the date of the model establishment was D1, test compound was administered at 1 mL/100 g to the stomach starting on D13 daily for 12 days (ending on D24).
The mice were examined and photos were taken every three days for their water intakes, food intakes, and weights; every four days for their abilities to withstand weight at their rear feet; every three days for the swelling volumes and swelling thickness and temperatures of their feet, as well as their behaviors.

[2] = test system: colon cancer CT26 transplanted tumor; assay: In vivo pharmacodynamic test on growth of colon cancer CT26 transplanted tumor in mice
Description: CT26 tumor cell line was maintained in vitro as monolayer culture in RPMI-1640 Media supplemented with 10% heat inactivated fetal calf serum at 37° C. in an atmosphere of 5% CO2 in air. The tumor cells were routinely sub-cultured twice weekly by trypsin-EDTA treatment, not to exceed 4-5 passages. The cells growing in an exponential growth phase were harvested and counted for tumor inoculation.
Each mouse was inoculated subcutaneously on the right lower flank with the single cell suspension of 95% viable tumor cells (3×10^5) in 0.1 mL of serum-free RPMI 1640 Media for tumor development. Each mouse was administered with a test compound of this invention when mean tumor size reached approximately 100 mm^3. Each group consisted of 6 mice. The mice were randomized to different treatment groups as shown in the table under ‘Groups and Treatment’. The mice were lightly anesthetized before implantation. Care was taken to ensure subcutaneous delivery of cells by lifting up the fold of skin with sterilized forceps and injecting cells. Any tumors that completely or partially grew intradermally (ID) or intramuscularly (IM) were not used.
CT26 cells were maintained in RPMI 1640 medium supplemented with 10% FBS at 37° C. and 5% CO2 atmosphere. Cell detachment was obtained using standard trypsinization methods, quantification of cell numbers and viability information using the NC-200 automated cell counter. Compound 1 (INV-1121) was thoroughly suspended in 0.5% methyl cellulose (MC) by sonication at 4° C. for 15 min before oral administration (p.o.) to animals. BALB/c mice were injected subcutaneously (s.c.) with live 1×10^5 […]. Mice developed tumors of approximately 36 mm^3 in 5 days. CT26 tumor-bearing mice were randomized and mapped into 5 groups of 10 mice each: group A received vehicle (0.5% MC); group B received 0.1 mg/kg of Compound 1; group C received 1 mg/kg of Compound 1, group D received 25 mg/kg of Compound 1; and group E received 150 mg/kg of Compound 1. All treatments were give Compound 1 p.o. daily for 21 consecutive days. Tumor volumes and body weights were measured twice weekly. Study was terminated 27 days after tumor cell injection. Tumor volumes were expressed as mean: t SEM. Tumor volume differences among treated mouse groups on day 27 were analyzed by the one-way ANOVA followed by Tukey's test. P<0.05 values were considered significant.
For routine monitoring, all study animals were monitored not only tumor growth but also behavior such as mobility, food and water consumption (by cage side checking only), body weight (BW), eye/hair matting and any other abnormal effect. All mortality and/or abnormal clinical signs were recorded.
Body weights of all animals are measured twice/week throughout the study. The measurement dates will specify as study design. Body weight change, expressed in %, was calculated using the following formula:
BW change (%)=((BWDay X−BWDay 0)/BWDay 0)×100
The measurement of tumor size was conducted twice/week with a caliper and the tumor volume (mm3) will be estimated using the formula: TV=a×b 2/2, where “a” and “b” is long and short diameters of a tumor, respectively. The TVs were used for calculation of the tumor growth inhibition (TGI, an indicator of antitumor effectiveness) value using the formula: TGI=(1−T/C)×100%, where “T” and “C” is the mean relative volumes (% tumor growth) of the tumors in the treated and the control groups, respectively. The experiment was terminated when the mean tumor volume exceeded 2000 mm3 or severe body weight loss.

Lewis lung carcinoma = assay: In vivo pharmacodynamic test on growth of LLC (Lewis Lung Cancer); parameters: species or system mice; settings: 90 mg/kg/day, after 9 days of treatment, p<0.01 vs control
Description: (§1) LLC (1×10^6 cells) were injected subcutaneously into the mid-dorsum of 6-week-old male C57BL/6 mice (The Jackson Laboratory, Bar Harbor, Me.) at 100 μL/mouse. Mice were systemically treated with INV-1120 (90 mg/kg/day), anti-PD1 (200 ug Q 3 days), INV-1120 (90 mg/kg/day) and anti-PD1 (200 ug Q 3 days), or vehicle (0.45% methylcellulose) in a total volume of 100 μL via orally by gavage. Treatment initiated when tumors reached approximately 249 mm^3 to 297 mm^3. Tumor size was measured by caliper (width^2×length×0.52=mm^3).

[3] = test system: MC38 murine colon adenocarcinoma; assay: In vivo pharmacodynamic test on subcutaneous murine colon adenocarcinoma (MC38); parameters: species or system mice; settings: 60 mg/kg/day, after 15 days of treatment, p<0.0001 vs control
Description: All animal studies were reviewed and approved by the Animal Care and Use Committee of Beth Israel Deaconess Medical Center, Boston, Mass. Animals were housed at a maximum of 5 animals per cage in a pathogen-free facility with unlimited access to sterile water and chow. Daily welfare evaluations and animal sacrifices were carried out according to the Committee guidelines. MC38 mouse colon adenocarcinoma cells (Kerafast, Boston, Mass., USA) were cultured in DMEM that was supplemented with 10% FBS, 1% GPS, 0.1 mM nonessential amino acids (MilliporeSigma), 1 mM sodium pyruvate (MilliporeSigma), 10 mM Hepes (MilliporeSigma), and […] gentamycin sulfate (MilliporeSigma). Adherent cells were trypsinized, pelleted, counted by hemocytometer, and injected into mice at 1×10^6 cells/mL in PBS.
as §1, with “Cells were” for “LLC (1×10^6 cells) were”, “with Compound 1 (INV-1120, 60” for “with INV-1120 (90”, “INV-1120 (60” for “INV-1120 (90”, “initiated on day 10 post-tumor cell injection,” for “initiated”, “approximately […]” for “approximately 249”, “to 224” for “to 297”

B16F10 melanoma = assay: In vivo pharmacodynamic test on growth of B16F10 melanoma; parameters: species or system mice; settings: 90 mg/kg/day, after 8 days of treatment, p<0.001 vs control
Description: as §1, with “B16F10 (1×10^6” for “LLC (1×10^6”, “with Compound 1 (INV-1120, 90” for “with INV-1120 (90”, “initiated on day 10 post-tumor cell injection,” for “initiated”, “approximately 100” for “approximately 249”, “to 116” for “to 297”

[4] = vs animals without administration of tested compounds
[5] = Example 6, studies as described in Example 5, compared with Example 5

Cc1sc2ccn(Cc3ccc(C(F)(F)F)cc3)c2c1C(=O)NC1(c2ccc(C(=O)O)cc2)CC1.OCCNCCO [INV-1120 diethanolamino salt, 4-(1-{[2-Methyl-4-(4-trifluoromethyl-benzyl)-4H-thieno[3,2-b]pyrrole-3-carbonyl]-amino}-cyclopropyl)-benzoic acid diethanolamino salt]
temperatures of the feet ([1]; 1, 3, 10 and 40 mg/kg to the stomach daily D13-D24, FIG. 5): had effect in lowering the temperatures | swelling (volumes and thickness) of the feet ([1]; 1, 3, 10 and 40 mg/kg to the stomach daily D13-D24, FIG. 6): had effect in lowering the temperatures and swelling (both volumes and thickness) | behavior patterns (e.g., balancing capability) ([1]; mouse, in vivo): improved behavior patterns | ability to withstand weight (rear feet) [1, 4]: greater weight gains and ability to withstand weight | weight gains [1, 4]: greater weight gains

Cc1sc2ccn(Cc3ccc(C(F)(F)F)cc3)c2c1C(=O)NC1(c2ccc(C(=O)O)cc2)CC1.NC(CO)(CO)CO [4-(1-{[2-Methyl-4-(4-trifluoromethyl-benzyl)-4H-thieno[3,2-b]pyrrole-3-carbonyl]-amino}-cyclopropyl)-benzoic acid tris(hydroxymethyl)aminomethane salt]
balancing or coordination ability after treatment [1, 5]: better balancing or coordination ability | reduction of swelling on the arthritis feet [1, 5]: even more effective reduction of swelling

O=C(O)c1ccc(C2(NC(=O)c3csc4ccn(Cc5ccc(C(F)(F)F)cc5)c34)CC2)cc1 [INV-1121]
tumor growth inhibition ([2]; 0.1 mg/kg p.o. daily): some inhibition was observed, but without statistical significance | tumor growth inhibition ([2]; 1.0 mg/kg p.o. daily): some inhibition was observed, but without statistical significance | anti-tumor activity ([2]; 25 mg/kg p.o. daily): significant and comparable anti-tumor activity | anti-tumor activity ([2]; 150 Mg/kg p.o. daily): significant and comparable anti-tumor activity | gross toxicity judged from animal body weight and overall animal behavior ([2]; all doses tested, 0.1-150 mg/kg p.o. daily): None of the doses tested showed gross toxicity | tumor growth inhibition, dose dependence ([2]; daily oral administration, range 0.1 mg/kg-150 mg/kg, 21 consecutive days, FIG. 1): inhibited the tumor growth in a dose-dependent manner

Cc1sc2ccn(Cc3ccc(C(F)(F)F)cc3)c2c1C(=O)NC1(c2ccc(C(=O)O)cc2)CC1 [INV-1120, 4-(1-{[2-Methyl-4-(4-trifluoromethyl-benzyl)-4H-thieno[3,2-b]pyrrole-3-carbonyl]-amino}-cyclopropyl)-benzoic acid]
inhibition of primary Lewis lung carcinoma growth vs control (Lewis lung carcinoma): inhibited primary Lewis lung carcinoma growth | inhibition of primary tumor growth vs control [3]: inhibited primary MC38 murine colon adenocarcinoma | inhibition of primary melanoma growth vs control (B16F10 melanoma): inhibited primary 16F10 melanoma growth
